Laboratory results published in patent US20080280937A1, “Ligand Conjugates of Vinca Alkaloids, Analogs, and Derivatives” (priority 2005, published 2008).
“And” between values parts separate entries of the source, which are not always exact repeats. Equal entries are not always repeated. “Also recorded” adds a separate entry of the source. Where two headings read alike, the source gives them in different places. Marks after values point to notes of the source that are not given here.

What was measured:
KB tumors = assay type: in vivo, nu/nu mice; conditions: for % T/C / LCK (log of cell kill): animals not showing complete response
Description: Inhibition of Tumor Growth in Mice. The anti-tumor activity of the compounds described herein, when administered intravenously (i.v.) to tumor-bearing animals, was evaluated in nu/nu mice bearing subcutaneous KB tumors. Approximately 8 to 11 days post tumor inoculation in the subcutis of the right axilla with 1×10^6 KB cells (tumor volume range at t0=between 60 and 80 mm^3), mice (5/group) were injected i.v. three times a week (TIW), for a defined length of time (e.g., 2-3 weeks) with (a) a defined dose level on a per kilogram body weight basis of a drug delivery conjugate described herein, or (b) an equivalent dose volume of PBS (control). Tumor growth was measured using calipers at 2-day or 3-day intervals in each treatment group. Tumor volumes were calculated using the equation V=a×b^2/2, where “a” is the length of the tumor and “b” is the width expressed in millimeters.

[1] = Animal Weight Determination; conditions: for Weight Loss: nu/nu mice with KB tumors; for weight of Balb/c mice: 3 μmol/kg TIW for 3 weeks (FIG. 25B)
Description: Animal Weight Determination. The percentage weight change of the mice was determined in mice (5 mice/group) on the indicated days post-tumor inoculation (PTI) as shown in the graph for the samples described in the related tumor volume assay.

[2] = test system: folate receptor-positive KB cells; assay type: cell-based, human; conditions: for competition by excess folic acid of effect on 3H-thymidine incorporation: with versus without at least 100-fold excess of folic acid
Description: Inhibition of Cellular DNA Synthesis. The compounds described herein were evaluated using an in vitro cytotoxicity assay that predicts the ability of the drug to inhibit the growth of folate receptor-positive KB cells. The compounds were comprised of folate linked to a respective chemotherapeutic drug, as prepared according to the protocols described herein. The KB cells were exposed for predetermined periods of time at 37° C. to the indicated concentrations of folate-drug conjugate in the absence or presence of at least a 100-fold excess of folic acid. The cells were then rinsed with fresh culture medium and incubated in fresh culture medium for 72 hours at 37° C. Cell viability was assessed using a ^3H-thymidine incorporation assay.

folate receptors (FRs) = target: T1, folate receptors (FRs) (Homo sapiens, UniProt P15328); assay: Relative Affinity Assay (displacement of 3H-folic acid on FR-positive KB cells); assay type: binding; conditions: for Relative Folate Receptor Affinity: summary table; for relative binding affinity versus folic acid at folic acid receptors: figure legends, folic acid = 1.0, 1 hour at 37° C
T1 construct: FR-positive KB cells were heavily seeded into 24-well cell culture plates; endogenous in cells; host or cells: KB cells
Description: Relative Affinity Assay. The affinity of the compounds described herein for folate receptors (FRs) relative to folate was determined according to a previously described method (Westerhof, G. R., J. H. Schornagel, et al. (1995) Mol. Pharm. 48: 459-471) with slight modification. Briefly, FR-positive KB cells were heavily seeded into 24-well cell culture plates and allowed to adhere to the plastic for 18 h. Spent incubation media was replaced in designated wells with folate-free RPMI (FFRPMI) supplemented with 100 nM ^3H-folic acid in the absence and presence of increasing concentrations of test article or folic acid. Cells were incubated for 60 min at 37° C. and then rinsed 3 times with PBS, pH 7.4, followed by the addition of 500 μL of 1% SDS in PBS, pH 7.4. Cell lysates were then collected and added to individual vials containing 5 mL of scintillation cocktail, and then counted for radioactivity. Negative control tubes contained only the ^3H-folic acid in FFRPMI (no competitor). Positive control tubes contained a final concentration of 1 mM folic acid, and CPMs measured in these samples (representing non-specific binding of label) were subtracted from all samples.

[3] = KB cells, without excess folic acid, read-out: IC50, 3H-thymidine incorporation in KB cells

T1 sequence (P15328 25-234): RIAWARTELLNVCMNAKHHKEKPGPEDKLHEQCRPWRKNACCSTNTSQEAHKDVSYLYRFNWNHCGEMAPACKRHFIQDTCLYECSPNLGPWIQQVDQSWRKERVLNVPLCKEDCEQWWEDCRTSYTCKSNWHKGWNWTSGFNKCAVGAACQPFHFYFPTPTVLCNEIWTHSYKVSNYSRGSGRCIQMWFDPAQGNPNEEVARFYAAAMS

For `CC[C@]1(O)C[C@@H]2CN(CCc3c([nH]c4ccccc34)[C@@](C(=O)OC)(c3cc4c(cc3OC)N(C)[C@H]3[C@@](O)(C(=O)NN)[C@H](O)[C@]5(CC)C=CCN6CC[C@]43[C@@H]65)C2)C1` [DAVLBH, desacetylvinblastine hydrazide], the “CR (animals of 5 showing a complete response)” value (shortened to “CR”) (KB tumors; 0.5 μmol/kg TIW 2 wk) was 0/5, the “% T/C” value (KB tumors; 0.5 μmol/kg TIW 2 wk) was 146% and the “LCK (log of cell kill)” value (KB tumors; 0.5 μmol/kg TIW 2 wk) was 0.6. For the same compound, the “CR” value (KB tumors; 0.75 μmol/kg TIW 2 wk) was 0/5, the “% T/C” value (KB tumors; 0.75 μmol/kg TIW 2 wk) was 265% and the “LCK (log of cell kill)” value (KB tumors; 0.75 μmol/kg TIW 2 wk) was 1.8. For the same compound, the “CR” value (KB tumors; 1 μmol/kg TIW 2 wk) was 0/5, the “% T/C” value (KB tumors; 1 μmol/kg TIW 2 wk) was 246% and the “LCK (log of cell kill)” value (KB tumors; 1 μmol/kg TIW 2 wk) was 1.8. The “CR” value (KB tumors; 2 μmol/kg TIW 2 wk) was 0/5^(d), the deaths (KB tumors; 2 μmol/kg TIW 2 wk, 5 animals) was “^(d)5 deaths” and the “Weight Loss” value ([1]; 0.5 μmol/kg TIW 2 wk) was 0%. The “Weight Loss” value ([1]; 0.75 μmol/kg TIW 2 wk) was 0%, the “Weight Loss” value ([1]; 1 μmol/kg TIW 2 wk) was over 10% and the “Weight Loss” value ([1]; 2 μmol/kg TIW 2 wk) was over 20%.
With `Nc1nc2ncc(CNc3ccc(C(=O)N[C@H](CCC(=O)NC[C@H](N)C(=O)N[C@@H](CC(=O)O)C(=O)N[C@@H](CS)C(=O)O)C(=O)O)cc3)nc2c(=O)[nH]1` [EC20] the “competition with Example 7 at folate receptors” value (KB tumors; 40 μmol/kg EC20 (rhenium complex) with 2 μmol/kg Example 7) was “acts as a competitor of Example 7 at folate receptors”.
With `CC[C@]1(O)C[C@H]2CN(CCc3c([nH]c4ccccc34)[C@@](C(=O)OC)(c3cc4c(cc3OC)N(C)[C@H]3[C@@](O)(C(=O)NNC(=O)OCCSSC[C@H](NC(=O)[C@H](CC(=O)O)NC(=O)[C@H](CC(=O)O)NC(=O)[C@H](CCCNC(=N)N)NC(=O)[C@H](CC(=O)O)NC(=O)CC[C@H](NC(=O)c5ccc(NCc6cnc7nc(N)[nH]c(=O)c7n6)cc5)C(=O)O)C(=O)O)[C@H](O)[C@]5(CC)C=CCN6CC[C@]43[C@@H]65)C2)C1` [Example 7] the IC50 [2, 3] was 0.009 µM and ~0.016 µM, the IC50 ([2]; summary table, read-out: IC50 KB Cells) was under 0.1 µM and the “Relative Folate Receptor Affinity” value (folate receptors (FRs)) was 0.17.
With `CC[C@]1(O)C[C@H]2CN(CCc3c([nH]c4ccccc34)[C@@](C(=O)OC)(c3cc4c(cc3OC)N(C)[C@H]3[C@@](O)(C(=O)NNC(=O)OCCSSC[C@H](NC(=O)[C@H](CN)NC(=O)[C@H](CC(=O)O)NC(=O)[C@H](CC(=O)O)NC(=O)[C@H](CC(=O)O)NC(=O)CC[C@H](NC(=O)c5ccc(NCc6cnc7nc(N)[nH]c(=O)c7n6)cc5)C(=O)O)C(=O)O)[C@H](O)[C@]5(CC)C=CCN6CC[C@]43[C@@H]65)C2)C1` [Example 10] the IC50 [2, 3] was 0.058 µM and ~0.058 µM, the “competition by excess folic acid of effect on 3H-thymidine incorporation” value (from here on “competition by excess folic acid”) [2] was “folate competes” and the “relative binding affinity versus folic acid at folic acid receptors” value (folate receptors (FRs)) was 0.24.
In the case of `CC[C@]1(O)C[C@H]2CN(CCc3c([nH]c4ccccc34)[C@@](C(=O)OC)(c3cc4c(cc3OC)N(C)[C@H]3[C@@](O)(C(=O)NNC(=O)OCCSSC[C@H](NC(=O)[C@H](CC(=O)O)NC(=O)[C@H](CC(=O)O)NC(=O)[C@H](CCCNC(=N)N)NC(=O)[C@H](CC(=O)O)NC(=O)[C@H](CCC(=O)O)NC(=O)c5ccc(NCc6cnc7nc(N)[nH]c(=O)c7n6)cc5)C(=O)O)[C@H](O)[C@]5(CC)C=CCN6CC[C@]43[C@@H]65)C2)C1` [Example 11], the “weight of nu/nu mice” value ([1]; 2 μmol/kg TIW for 3 weeks (FIG. 26B)) is reported as “little effect on the weight of the mice; also recorded: absence of an effect”.
In the case of `CC[C@]1(O)C[C@H]2CN(CCc3c([nH]c4ccccc34)[C@@](C(=O)OC)(c3cc4c(cc3OC)N(C)[C@H]3[C@@](O)(C(=O)NNC(=O)OCCSSC[C@H](NC(=O)CC[C@H](NC(=O)c5ccc(NCc6cnc7nc(N)[nH]c(=O)c7n6)cc5)C(=O)O)C(=O)O)[C@H](O)[C@]5(CC)C=CCN6CC[C@]43[C@@H]65)C2)C1` [Example 18], the “Folate Receptor Competition” value ([2]; summary table) is reported as “Yes”, the “competition by excess folic acid” value [2] is reported as “folate competes” and the “relative binding affinity versus folic acid at folic acid receptors” value (folate receptors (FRs)) is reported as 0.13. For the same compound, the “Relative Folate Receptor Affinity” value (folate receptors (FRs)) was 0.13.
For `CC[C@]1(O)C[C@H]2CN(CCc3c([nH]c4ccccc34)[C@@](C(=O)OC)(c3cc4c(cc3OC)N(C)[C@H]3[C@@](O)(C(=O)NNC(=O)OCCSSC[C@H](NC(=O)c5ccc(NCc6cnc7nc(N)[nH]c(=O)c7n6)cc5)C(=O)O)[C@H](O)[C@]5(CC)C=CCN6CC[C@]43[C@@H]65)C2)C1` [Example 19], the “Folate Receptor Competition” value ([2]; summary table) was “Yes”, the “competition by excess folic acid” value [2] was “folate competes” and the “relative binding affinity versus folic acid at folic acid receptors” value (folate receptors (FRs)) was 0.046. For the same compound, the “Relative Folate Receptor Affinity” value (folate receptors (FRs)) was 0.05.
For `CC[C@]1(O)C[C@H]2CN(CCc3c([nH]c4ccccc34)[C@@](C(=O)OC)(c3cc4c(cc3OC)N(C)[C@H]3[C@@](O)(C(=O)NNC(=O)OCCSSC[C@H](NC(=O)[C@H](CC(=O)O)NC(=O)[C@H](CC(=O)O)NC(=O)[C@H](CC(=O)O)NC(=O)[C@H](CC(=O)O)NC(=O)CC[C@H](NC(=O)c5ccc(NCc6cnc7nc(N)[nH]c(=O)c7n6)cc5)C(=O)O)C(=O)O)[C@H](O)[C@]5(CC)C=CCN6CC[C@]43[C@@H]65)C2)C1` [Example 21], the “weight of Balb/c mice” value [1] was “little effect on the weight of the mice; also recorded: absence of an effect” and the “relative binding affinity versus folic acid at folic acid receptors” value (folate receptors (FRs)) was 0.16.
In the case of `CC[C@]1(O)C[C@H]2CN(CCc3c([nH]c4ccccc34)[C@@](C(=O)OC)(c3cc4c(cc3OC)N(C)[C@H]3[C@@](O)(C(=O)NCCOC(=O)OCCSSC[C@H](NC(=O)[C@H](CC(=O)O)NC(=O)[C@H](CCCNC(=N)N)NC(=O)[C@H](CC(=O)O)NC(=O)CC[C@H](NC(=O)c5ccc(NCc6cnc7nc(N)[nH]c(=O)c7n6)cc5)C(=O)O)C(=O)O)[C@H](O)[C@]5(CC)C=CCN6CC[C@]43[C@@H]65)C2)C1` [Example 22], the “weight of Balb/c mice” value [1] is reported as “little effect on the weight of the mice; also recorded: absence of an effect” and the “relative binding affinity versus folic acid at folic acid receptors” value (folate receptors (FRs)) is reported as 0.26.
For `Nc1nc2ncc(CNc3ccc(C(=O)N[C@@H](CCC(=O)O)C(=O)O)cc3)nc2c(=O)[nH]1` [folic acid, reference compound], the “relative binding affinity versus folic acid at folic acid receptors” value (folate receptors (FRs)) was 1.0.
